17 compounds from PubChem BioAssay (NCI) can be followed below.

Some test systems named below: CAKI-1 renal; SK-OV-3 ovarian; HOP-62 NSCLC; SR leukemia; A549 NSCLC; SK-MEL-28 melanoma; HCT-116 colon; M19-MEL melanoma; MOLT-4 leukemia; T-47D breast.
Holding throughout (test): growth of human tumour cells (NCI), 48 h

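Five concentrations, 48 hours, 96-well plates. GI50 marks 50% less growth. TGI is the concentration that stops growth completely.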

Regarding `COc1ccc(N2C(=O)C(N3C(=O)C=CC3=O)C2C=O)cc1` (stereo unspecified), the TGI in the assay with CAKI-1 renal, in the assay with SK-OV-3 ovarian, in the assay on HOP-62 NSCLC, with SR leukemia, in the assay on A549 NSCLC and in the assay with SK-MEL-28 melanoma was over 100 µM throughout. Further, the TGI with HCT-116 colon and in the assay with M19-MEL melanoma was over 100 µM each time.
For the compound `COc1cccc2c1[C@]1(O)C(O)CCCC21` (stereo partly specified), the TGI in the assay with CAKI-1 renal, in the assay on SK-OV-3 ovarian, in the assay on HOP-62 NSCLC, with A549 NSCLC, in the assay on SK-MEL-28 melanoma and in the assay on HCT-116 colon was over 100 µM throughout. For the same compound, the TGI in the assay with M19-MEL melanoma and with MOLT-4 leukemia was over 100 µM in each case.
For `CCOC(=O)C[n+]1ccc2c([nH]c3cc(OC)ccc32)c1C`, the TGI in the assay with CAKI-1 renal, in the assay on SK-OV-3 ovarian, with HOP-62 NSCLC, in the assay on A549 NSCLC, in the assay on SK-MEL-28 melanoma and in the assay on HCT-116 colon was over 100 µM throughout. Also, the TGI in the assay with M19-MEL melanoma and in the assay on MOLT-4 leukemia was over 100 µM throughout.
As to `CC1OC=CC(=O)C1O` (stereo unspecified), the TGI with SK-OV-3 ovarian, with HOP-62 NSCLC, in the assay with SR leukemia, with A549 NSCLC, with SK-MEL-28 melanoma and in the assay with M19-MEL melanoma was over 100 µM each time. In the assay with MOLT-4 leukemia, the TGI was over 100 µM.
As for `c1ccc(-c2[nH]c(-c3ccccc3)c(-c3cnccn3)c2-c2cnccn2)cc1`, the TGI with CAKI-1 renal, with SK-OV-3 ovarian, with HOP-62 NSCLC, with SR leukemia, with A549 NSCLC and with SK-MEL-28 melanoma was over 100 µM in each case. For the same compound, the TGI in the assay with HCT-116 colon, with M19-MEL melanoma and in the assay on MOLT-4 leukemia was over 100 µM in each case.
For the compound `O=C1OC2C=CC1C1(CCOC1=O)C2` (stereo unspecified), the TGI in the assay with CAKI-1 renal, in the assay with HOP-62 NSCLC, with SR leukemia, with A549 NSCLC, in the assay on SK-MEL-28 melanoma and in the assay with HCT-116 colon was over 100 µM each time. Moreover, the TGI in the assay with M19-MEL melanoma and in the assay with MOLT-4 leukemia was over 100 µM each time.
With `CC1(C)N=C(N)N=C(N)N1c1ccc(OCCCOc2ccccc2)c(Cl)c1`, the TGI in the assay with CAKI-1 renal was 44.3 µM; in the assay on SK-OV-3 ovarian, 35.1 µM; in the assay on A549 NSCLC it was over 100 µM; with SK-MEL-28 melanoma it was 9.16 µM; in the assay on HCT-116 colon it was 13.5 µM; in the assay on M19-MEL melanoma it was 15 µM. Also, the TGI in the assay on MOLT-4 leukemia amounted to 16.8 µM.
Turning to `CC(=O)[C@H]1CCC2[C@@H]3CC=C4C(O)C(OS(=O)(=O)O)CC[C@]4(C)C3CC[C@@]21C` (stereo partly specified), the TGI in the assay on CAKI-1 renal, in the assay on SK-OV-3 ovarian, with HOP-62 NSCLC, in the assay on A549 NSCLC, in the assay with SK-MEL-28 melanoma and with HCT-116 colon was over 100 µM in each case. The TGI in the assay on M19-MEL melanoma and with MOLT-4 leukemia was over 100 µM throughout.
Consider `NC1CCCCC1N.O=S(=O)([O-])CCCN1CCN(CCO)CC1.O=S(=O)([O-])CCCN1CCN(CCO)CC1.[Pt+4]`, for which the GI50 in the assay on CAKI-1 renal was 0.856 µM; with SK-OV-3 ovarian, over 87.2 µM; with HOP-62 NSCLC, over 20.7 µM; in the assay with A549 NSCLC it was 4.7 µM; in the assay with SK-MEL-28 melanoma it was 8.22 µM; in the assay with HCT-116 colon, 2 µM. The GI50 is 1.18 µM in the assay on M19-MEL melanoma and 0.587 µM in the assay with MOLT-4 leukemia. The TGI in the assay with CAKI-1 renal is 9.16 µM; with SK-OV-3 ovarian, over 100 µM; in the assay on HOP-62 NSCLC, over 100 µM; with A549 NSCLC, over 100 µM; with SK-MEL-28 melanoma, 29.8 µM; in the assay on HCT-116 colon, over 100 µM. Moreover, the TGI is 16.2 µM in the assay on M19-MEL melanoma and 20.6 µM in the assay with MOLT-4 leukemia.
For `CN(CCN(C)C(=O)CCn1ccc(=O)[nH]c1=O)C(=O)CCn1ccc(=O)[nH]c1=O`, the TGI in the assay on HOP-62 NSCLC, with SR leukemia, in the assay on A549 NSCLC, with SK-MEL-28 melanoma, in the assay on HCT-116 colon and with M19-MEL melanoma was over 100 µM each time. Also, in the assay with MOLT-4 leukemia, the TGI was over 100 µM.
As to `CCCCCCCCCCCCCCCCNc1ccn(C2CC(OP(=O)(O)OCC3OC(n4cc(CC)c(=O)[nH]c4=O)CC3O)C(CO)O2)c(=O)n1` (stereo unspecified), the TGI in the assay with CAKI-1 renal is over 100 µM; in the assay on T-47D breast it was over 100 µM; in the assay with SK-OV-3 ovarian it was 82.1 µM; in the assay on HOP-62 NSCLC, 53.9 µM; with SR leukemia, 47.2 µM; in the assay on A549 NSCLC, 55.2 µM. In addition, the TGI in the assay on SK-MEL-28 melanoma is 68.3 µM; with HCT-116 colon, over 100 µM; in the assay on MOLT-4 leukemia, 41.3 µM.
Turning to `CC(=O)Nc1ccc(/C=C(\NC(=O)c2ccccc2)C(=O)NNS(=O)(=O)c2ccc(C)cc2)cc1`, the TGI in the assay on CAKI-1 renal is over 100 µM; with SK-OV-3 ovarian, over 100 µM; in the assay with HOP-62 NSCLC it was over 100 µM; with SR leukemia it was 37.8 µM; in the assay on A549 NSCLC, over 100 µM; in the assay on SK-MEL-28 melanoma, over 100 µM. In addition, the TGI in the assay with HCT-116 colon, in the assay with M19-MEL melanoma and with MOLT-4 leukemia was over 100 µM each time.
`COC(=O)C1[C@H](C(=O)OC)C1(Br)CBr` (stereo partly specified): the TGI with CAKI-1 renal, in the assay on T-47D breast, with SK-OV-3 ovarian, in the assay with HOP-62 NSCLC, in the assay on SR leukemia and in the assay on A549 NSCLC was over 100 µM each time. Besides, the TGI with SK-MEL-28 melanoma, with HCT-116 colon and in the assay on MOLT-4 leukemia was over 100 µM throughout.
With `O=C(NCc1cccnc1)C(=O)NCc1cccnc1`, the TGI in the assay on CAKI-1 renal, in the assay with T-47D breast, in the assay on SK-OV-3 ovarian, with HOP-62 NSCLC, with SR leukemia and in the assay on A549 NSCLC was over 100 µM throughout. Besides, the TGI with SK-MEL-28 melanoma, in the assay with HCT-116 colon and in the assay on MOLT-4 leukemia was over 100 µM in each case.
As for `CCCCCCc1cn([C@H]2C[C@H](O)[C@@H](CO)O2)c(=O)[nH]c1=O`, the TGI with CAKI-1 renal, in the assay on A549 NSCLC, in the assay with SK-MEL-28 melanoma, with HCT-116 colon and in the assay on M19-MEL melanoma was over 100 µM each time.
With `Nc1ccc(-c2nc3ccccc3s2)cc1`, the TGI was over 67.8 µM in the assay with CAKI-1 renal; 65.5 µM with T-47D breast; over 100 µM in the assay on SK-OV-3 ovarian; 60.3 µM in the assay on HOP-62 NSCLC; 62.2 µM in the assay on SR leukemia; 63.2 µM in the assay on A549 NSCLC. The TGI in the assay on SK-MEL-28 melanoma was 33 µM; in the assay with HCT-116 colon, 35.2 µM; in the assay on M19-MEL melanoma, over 100 µM; in the assay with MOLT-4 leukemia, 70.3 µM.
In the case of `C/C(=C\CNc1nc(Cl)nc2nc[nH]c12)CO`, the TGI in the assay with CAKI-1 renal, in the assay on T-47D breast, in the assay on SK-OV-3 ovarian, with HOP-62 NSCLC, with SR leukemia and in the assay on A549 NSCLC was over 100 µM in each case. Also, the TGI in the assay on SK-MEL-28 melanoma, with HCT-116 colon and in the assay on MOLT-4 leukemia was over 100 µM each time.
